What was measured:
Assay in all cases: liposome pelleting
Type in all cases: binding
Details in all cases: 10 mol% lipid in POPC/POPE liposomes, 20 µM protein, pH 7.2, 125 mM NaCl
[1] = molecular target: T1, SNX17 (Homo sapiens, UniProt Q15036)
T1 construct: PX domain only, N-terminal GST removed by thrombin, E. coli
T1 sequence (Q15036 1-109 limits assumed): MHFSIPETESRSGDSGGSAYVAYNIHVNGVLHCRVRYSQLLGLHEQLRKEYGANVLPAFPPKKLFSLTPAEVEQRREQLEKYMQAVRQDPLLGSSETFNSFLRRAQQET

[2] = molecular target: T2, SNX16 (Homo sapiens, UniProt P57768)
T2 construct: PX domain only, N-terminal GST removed by thrombin, E. coli
T2 sequence (P57768 105-218 limits assumed): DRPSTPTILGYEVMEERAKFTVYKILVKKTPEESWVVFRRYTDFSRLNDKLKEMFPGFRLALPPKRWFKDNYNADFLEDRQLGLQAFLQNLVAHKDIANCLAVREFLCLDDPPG

[3] = molecular target: T3, SNX27 (Homo sapiens, UniProt Q96L92)
T3 construct: PX domain only, N-terminal GST removed by thrombin, E. coli

[4] = molecular target: T4, PXK (Homo sapiens, UniProt Q7Z7A4)
T4 construct: PX domain only, N-terminal GST removed by thrombin, E. coli
T4 sequence (Q7Z7A4 14-126 limits assumed): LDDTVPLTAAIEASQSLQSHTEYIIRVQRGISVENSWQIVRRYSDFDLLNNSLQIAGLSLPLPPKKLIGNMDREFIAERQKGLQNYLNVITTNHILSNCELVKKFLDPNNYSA

[5] = molecular target: T5, p40phox (Homo sapiens, UniProt Q15080)
T5 construct: gene NCF4; PX domain only, N-terminal GST removed by thrombin, E. coli
T5 sequence (Q15080 19-140 limits assumed): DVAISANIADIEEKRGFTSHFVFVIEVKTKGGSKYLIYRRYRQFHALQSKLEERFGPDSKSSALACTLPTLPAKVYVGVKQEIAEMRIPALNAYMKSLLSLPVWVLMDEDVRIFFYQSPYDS

[6] = molecular target: T6, SNX7 (Homo sapiens, UniProt Q9UNH6)
T6 construct: PX domain only, N-terminal GST removed by thrombin, E. coli
T6 sequence (Q9UNH6 30-151 limits assumed): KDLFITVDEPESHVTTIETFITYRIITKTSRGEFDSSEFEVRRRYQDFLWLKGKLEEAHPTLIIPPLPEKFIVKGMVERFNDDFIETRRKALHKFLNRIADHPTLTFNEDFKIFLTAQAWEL

[7] = molecular target: T7, SNX3 (Homo sapiens, UniProt O60493)
T7 construct: PX domain only, N-terminal GST removed by thrombin, E. coli
T7 sequence (O60493 27-151 limits assumed): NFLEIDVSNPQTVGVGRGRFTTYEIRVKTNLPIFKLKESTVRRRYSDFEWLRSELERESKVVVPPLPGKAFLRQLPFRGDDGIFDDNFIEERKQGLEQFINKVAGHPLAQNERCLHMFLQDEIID

[8] = molecular target: T8, SNX19 (Homo sapiens, UniProt Q92543)
T8 construct: a GST-tagged form was also made), E. coli
T8 sequence (Q92543 533-663 limits assumed): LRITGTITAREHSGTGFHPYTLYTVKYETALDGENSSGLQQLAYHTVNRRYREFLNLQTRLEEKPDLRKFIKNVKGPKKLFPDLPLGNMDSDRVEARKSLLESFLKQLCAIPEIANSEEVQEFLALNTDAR

**Q.** With `CCCCCCCC(=O)OC[C@H](COP(=O)(O)O[C@@H]1[C@H](O)[C@H](OP(=O)(O)O)[C@@H](O)[C@H](O)[C@H]1O)OC(=O)CCCCCCC` [PtdIns3P, 1,2-dioctanoyl-sn-glycero-3-(phosphoinositol-3-phosphate)] as the compound, how does the liposome pelleting [1] read?
**A.** The liposome pelleting was “exclusive interaction with liposomes containing PtdIns3P (SNX3, SNX7, SNX19, SNX17”.

**Q.** And the liposome pelleting [2]?
**A.** The liposome pelleting was “(SNX3, SNX7, SNX19, SNX17, SNX27, p40phox, PXK, and SNX16)”.

**Q.** And the liposome pelleting [3]?
**A.** Its liposome pelleting is “exclusive interaction with liposomes containing PtdIns3P (SNX3, SNX7, SNX19, SNX17, SNX27”.

**Q.** And the liposome pelleting [4]?
**A.** The liposome pelleting was “(SNX3, SNX7, SNX19, SNX17, SNX27, p40phox, PXK, and SNX16)”.

**Q.** What about the liposome pelleting [5] of the same compound?
**A.** Its liposome pelleting is “(SNX3, SNX7, SNX19, SNX17, SNX27, p40phox, PXK, and SNX16)”.

**Q.** What about the liposome pelleting [6] of the same compound?
**A.** Its liposome pelleting is “exclusive interaction with liposomes containing PtdIns3P (SNX3, SNX7”.

**Q.** What about the liposome pelleting [7] of the same compound?
**A.** Its liposome pelleting is “exclusive interaction with liposomes containing PtdIns3P (SNX3”.

**Q.** And the liposome pelleting [8]?
**A.** The liposome pelleting was “exclusive interaction with liposomes containing PtdIns3P (SNX3, SNX7, SNX19”.

From PMC6449406, “Classification of the human phox homology (PX) domains based on their phosphoinositide binding specificities” (Nature Communications, 2019)
